Where two headings read alike, the source gives them in different places.
What was measured:
[1] = Compound toxicity by ATPlite 1 Step (total ATP levels) in HepAD38 cells; assay type: cell-based; details: human, day of harvest, concentration reducing total ATP levels by 50% relative to no drug controls
Protocol: (§1) Methods: HepAD38 cells are maintained as previously reported (Ladner et al, Antimicrob. Agents Chemother. 1997, […], 1715). Briefly, cells are passaged upon attaining confluency in DMEM/F12 media in the presence of 10% FBS, Penn/Strep, 250 μg/mL G418, and 1 μg/ml tetracycline. Novel compounds are screened by first washing cells three times with PBS to remove tetracycline, and plating in 96 well plates at 35,000 cells/well. Compounds dissolved in DMSO are then diluted 1:200 into wells containing cells. Five days after compound addition, material is harvested for analysis. For an extended 8 day analysis, cells are plated and treated as described above, but media and compound are refreshed on d2 and d5 post initial treatment.
Additionally, on day of harvest, compound toxicity is evaluated by treating cells with ATPlite 1 Step according to the manufacturer's protocol. Compound concentrations that reduce total ATP levels in wells by 50% relative to no drug controls (CC50) are reported; CC50 ranges are as follows: A>30 μM; B 10-30 μM; C<10 μM.

HBV = experiment: HepAD38 antiviral screen: reduction of viral product accumulation (virion DNA by qPCR; HBsAg/HBeAg ELISA); assay type: cell-based; details: Hepatitis B virus
Protocol: as §1
On harvest day, virion DNA is obtained by lysing with Sidestep Lysis and Stabilization Buffer and then quantified via quantitative real time PCR. Commercially available ELISA kits are used to quantitate the viral proteins HBsAg (Alpco) or HbeAg (US Biological) by following the manufacturer's recommended protocol after diluting samples to match the linear range of their respective assays. Irrespective of readout, compound concentrations that reduce viral product accumulation in the cell lysates or supernatants by relative to no drug controls (EC50) are reported; EC50 ranges are as follows: A<1 μM; B 1-10 μM; C>10 μM.

[2] = 120 h, HepAD38 cells, harvest five days after compound addition, reduction of viral product accumulation relative to no drug controls, read-out: HepAD38 EC50

| SMILES | CC50 [1] [µM] | EC50 (HBV; [2]) [µM] | EC50 (HBV; HePAD38, 120 h, read-out: HepAD38 EC50 (μM)) [µM] |
| --- | --- | --- | --- |
| CC1=C(CN(C)C)C(c2ccc(F)cc2Cl)N=C(c2nccs2)N1 (racemic) [Example 8] | > 30 | > 10 | – |
| CC1=C(CO)C(c2ccc(F)cc2Cl)N=C(c2nccs2)N1 (racemic) [Example 9] | > 30 | 1 to 10 | – |
| COCC1=C(C)NC(c2nccs2)=NC1c1ccc(F)cc1Cl (racemic) [Example 10] | > 30 | 1 to 10 | – |
| CC(=O)C1=C(C)NC(c2nccs2)=NC1c1ccc(F)cc1Cl (racemic) [Example 11] | > 30 | < 1 | – |
| C=CC1=C(C)NC(c2nccs2)=NC1c1ccc(F)cc1Cl (racemic) [Example 12] | > 30 | < 1 | – |
| CC1=C(c2ncco2)C(c2ccc(F)cc2Cl)N=C(c2nccs2)N1 (racemic) [Example 13] | > 30 | < 1 | – |
| CC1=C(c2nccs2)C(c2ccc(F)cc2Cl)N=C(c2nccs2)N1 (racemic) [Example 14] | > 30 | < 1 | – |
| CC1=C(c2cc(C)no2)C(c2ccc(F)cc2Cl)N=C(c2nccs2)N1 (racemic) [Example 15] | > 30 | < 1 | – |
| CC1=C(c2ccn(C)n2)C(c2ccc(F)cc2Cl)N=C(c2nccs2)N1 (racemic) [Example 16] | > 30 | < 1 | – |
| CC1=C(c2ccnn2C)C(c2ccc(F)cc2Cl)N=C(c2nccs2)N1 (racemic) [Example 17] | > 30 | < 1 | – |
| CC1=C(c2ccccc2)C(c2ccc(F)cc2Cl)N=C(c2nccs2)N1 (racemic) [Example 18] | 10 to 30 | < 1 | – |
| CC1=C(c2ccccn2)C(c2ccc(F)cc2Cl)N=C(c2nccs2)N1 (racemic) [Example 19] | > 30 | 1 to 10 | – |
| CC1=C(c2ncccn2)C(c2ccc(F)cc2Cl)N=C(c2nccs2)N1 (racemic) [Example 20] | > 30 | 1 to 10 | – |
| CC1=C(C(=O)NS(C)(=O)=O)C(c2ccc(F)cc2Cl)N=C(c2nccs2)N1 (racemic) [Example 21] | > 30 | > 10 | – |
| CC1=C(C(=O)N(C)S(C)(=O)=O)C(c2ccc(F)cc2Cl)N=C(c2nccs2)N1 (racemic) [Example 22] | > 30 | > 10 | – |
| CC1=C(S(C)(=O)=O)C(c2ccc(F)cc2Cl)N=C(c2nccs2)N1 (racemic) [Example 25] | > 30 | > 10 | – |
| CCOP(=O)(OCC)C1=C(C)NC(c2nccs2)=NC1c1ccc(F)cc1Cl (racemic) [Example 26] | > 30 | – | > 10 |
| CC1=C(c2ncco2)[C@@H](c2ccc(F)cc2Cl)N=C(c2nccs2)N1 (single isomer, unassigned) [Example 13a] | > 30 | 1 to 10 | – |
| CC1=C(c2ncco2)[C@H](c2ccc(F)cc2Cl)N=C(c2nccs2)N1 (single isomer, unassigned) [Example 13b] | > 30 | < 1 | – |
| CC1=C(c2ccn(C)n2)[C@@H](c2ccc(F)cc2Cl)N=C(c2nccs2)N1 (single isomer, unassigned) [Example 16a] | > 30 | < 1 | – |

| SMILES | CC50 [1] [µM] | EC50 (HBV; [2]) [µM] | EC50 (HBV; HePAD38, 120 h, read-out: HepAD38 EC50 (μM)) [µM] |
| --- | --- | --- | --- |
| CC1=C(c2ccn(C)n2)[C@H](c2ccc(F)cc2Cl)N=C(c2nccs2)N1 (single isomer, unassigned) [Example 16b] | > 30 | < 1 | – |
| CCOC(=O)C1=C(CN2CCC[C@H]2C(=O)NS(C)(=O)=O)NC(c2nccs2)=NC1c1ccc(F)cc1Cl (stereo partly shown) [Example 1] | 10 to 30 | 1 to 10 | – |
| CCOC(=O)C1=C(CN2CC(F)(F)C[C@H]2C(=O)NS(C)(=O)=O)NC(c2nccs2)=NC1c1ccc(F)cc1Cl (stereo partly shown) [Example 2] | > 30 | 1 to 10 | – |
| CCOC(=O)C1=C(CN2CC(F)(F)C[C@H]2C#N)NC(c2nccs2)=NC1c1ccc(F)cc1Cl (stereo partly shown) [Example 3] | > 30 | < 1 | – |
| CCOC(=O)[C@@H]1CC(F)(F)CN1CC1=C(C(=O)NS(C)(=O)=O)C(c2ccc(F)cc2Cl)N=C(c2nccs2)N1 (stereo partly shown) [Example 4] | > 30 | > 10 | – |
| CCOC(=O)[C@@H]1CC(F)(F)CC1CC1=C(C#N)C(c2ccc(F)cc2Cl)N=C(c2nccs2)N1 (stereo partly shown) [Example 5] | > 30 | 1 to 10 | – |
| CCOC(=O)C1=C(CC2CCC[C@H]2C(=O)O)NC(c2nccs2)=NC1C1CCCCC1 (stereo partly shown) [Example 6] | > 30 | > 10 | – |
| CCOC(=O)C1=C(CC2CC(F)(F)C[C@H]2C(=O)O)NC(c2nccs2)=NC1C1CCCC1 (stereo partly shown) [Example 7] | > 30 | 1 to 10 | – |
| CC1=C(c2nn[nH]n2)C(c2ccc(F)cc2Cl)N=C(c2nccs2)N1 (stereo not shown) [Example 27] | > 30 | > 10 | – |
| CNS(=O)(=O)C1=C(C)NC(c2nccs2)=NC1c1ccc(F)cc1Cl (stereo not shown) [Example 28] | > 30 | > 10 | – |
| CCOC(=O)C1=C(C)NC(N2CCCC2=O)=NC1c1ccc(F)cc1Cl (stereo not shown) [Example 29] | > 30 | > 10 | – |
| CCOC(=O)C1=C(C)NC(N2CCCC2)=NC1c1ccc(F)cc1Cl (stereo not shown) [Example 30] | > 30 | > 10 | – |
| CCOC(=O)C1=C(C)NC(C(=O)OC)=NC1c1ccc(F)cc1Cl (stereo not shown) [Example 31] | > 30 | 1 to 10 | – |
| CC1=C(C#N)C(c2ccc(F)cc2Cl)N=C(c2nccs2)N1 (stereo not shown) [Example 32] | > 30 | < 1 | – |
| CC1=C(c2nccn2C)C(c2ccc(F)cc2Cl)N=C(c2nccs2)N1 (stereo not shown) [Example 33] | > 30 | 1 to 10 | – |
| CCn1ccc(C2=C(C)NC(c3nccs3)=NC2c2ccc(F)cc2Cl)n1 (stereo not shown) [Example 34] | > 30 | < 1 | – |
| COCC1=C(c2ccn(C)n2)C(c2ccc(F)cc2Cl)N=C(c2nccs2)N1 (stereo not shown) [Example 35] | > 30 | < 1 | – |
| Cn1ccc(C2=CNC(c3nccs3)=NC2c2ccc(F)cc2Cl)n1 (stereo not shown) [Example 36] | > 30 | < 1 | – |
| CN(C)CC1=C(c2ccn(C)n2)C(c2ccc(F)cc2Cl)N=C(c2nccs2)N1 (stereo not shown) [Example 37] | 10 to 30 | > 10 | – |
| Cn1ccc(C2=C(CN3CC(F)(F)C[C@H]3C(=O)O)NC(c3nccs3)=NC2c2ccc(F)cc2Cl)n1 (stereo partly shown) [Example 38] | > 30 | < 1 | – |

| SMILES | CC50 [1] [µM] | EC50 (HBV; [2]) [µM] | EC50 (HBV; HePAD38, 120 h, read-out: HepAD38 EC50 (μM)) [µM] |
| --- | --- | --- | --- |
| CCOC(=O)[C@@H]1CC(F)(F)CN1CC1=C(c2ccn(C)n2)C(c2ccc(F)cc2Cl)N=C(c2nccs2)N1 (stereo partly shown) [Example 39] | > 30 | < 1 | – |
| Cn1ccc(C2=C(CC#N)NC(c3nccs3)=NC2c2ccc(F)cc2Cl)n1 (stereo not shown) [Example 40] | > 30 | 1 to 10 | – |
| Cn1ccc(C2=C(CO)NC(c3nccs3)=NC2c2ccc(F)cc2Cl)n1 (stereo not shown) [Example 41] | 10 to 30 | < 1 | – |
| Cn1ccc(C2=C(CN=[N+]=[N-])NC(c3nccs3)=NC2c2ccc(F)cc2Cl)n1 (stereo not shown) [Example 42] | > 30 | < 1 | – |
| Cn1ccc(C2=C(CF)NC(c3nccs3)=NC2c2ccc(F)cc2Cl)n1 (stereo not shown) [Example 43] | > 30 | < 1 | – |
| COC(=O)CC1=C(c2ccn(C)n2)C(c2ccc(F)cc2Cl)N=C(c2nccs2)N1 (stereo not shown) [Example 44] | > 30 | 1 to 10 | – |
| COC(=O)/C=C1\NC(c2nccs2)=NC(c2ccc(F)cc2Cl)C1c1ccn(C)n1 (stereo not shown) [Example 45] | 10 to 30 | 1 to 10 | – |
| Cn1ccc(C2=C(CC(=O)O)NC(c3nccs3)=NC2c2ccc(F)cc2Cl)n1 (stereo not shown) [Example 46] | 10 to 30 | > 10 | – |
| CC1=C(c2ncco2)C(C)(c2ccc(F)cc2Cl)N=C(c2nccs2)N1 (stereo not shown) [Example 47] | – | > 10 | – |
| CC1=C(c2ccn(C)n2)C(C)(c2ccc(F)cc2Cl)N=C(c2nccs2)N1 (stereo not shown) [Example 48] | – | > 10 | – |
| CCOC(=O)C1=CNC(c2nccs2)=NC1(C)c1ccc(F)cc1 (stereo not shown) [Example 49] | – | 1 to 10 | – |
| Cn1ccc(C2=CNC(c3nccs3)=NC2(C)c2ccc(F)cc2)n1 (stereo not shown) [Example 50] | – | 1 to 10 | – |
| C=CCOC(=O)C1=CNC(c2nccs2)=NC1(C)c1ccc(F)cc1 (stereo not shown) [Example 51] | – | 1 to 10 | – |
| Cn1ccc(C2=C(CN3C4CCC3COC4)NC(c3nccs3)=N[C@H]2c2ccc(F)cc2Cl)n1 [Example 52] | – | < 1 | – |
| Cn1ccc(C2=C(CN3CCOCC3)NC(c3nccs3)=N[C@H]2c2ccc(F)cc2Cl)n1 [Example 53] | – | < 1 | – |
| Cn1ccc(C2=C(CN3C4CCC3CC(O)C4)NC(c3nccs3)=N[C@H]2c2ccc(F)cc2Cl)n1 (stereo partly shown) [Example 54] | – | 1 to 10 | – |
| COC(=O)[C@@H]1CCC[C@H]1N1C[C@@H]2CN(CC3=C(c4ccn(C)n4)[C@H](c4ccc(F)cc4Cl)N=C(c4nccs4)N3)CCN2C1=O [Example 55] | – | 1 to 10 | – |
| CCOC(=O)C1=CNC(c2nccs2)=NC1(C)c1ccc(F)cc1Cl (stereo not shown) [Example 57] | – | 1 to 10 | – |
